Data reported in ChEMBL document CHEMBL3992492, “Sulfoximines from a Medicinal Chemist's Perspective: Physicochemical and in vitro Parameters Relevant for Drug Discovery” (Eur J Med Chem, 2017).
Converted amounts (≈) assume the structure as drawn.

Legend:
[1] = Dissociation constant, pKb of the compound in aqueous/organic mixture at pH 2 to 12 by potentiometric titration method; format: physicochemical; conditions: buffer
[2] = Drug degradation in pH <1 HCl after 7 days by HPLC method
[3] = Drug degradation in pH >10 NH3 after 7 days by HPLC method
[4] = physchem; conditions: octanol/water, pH 10
[5] = in vitro; conditions: human, liver microsomes
Description: Half life in human liver microsomes at 1 uM in presence of NADPH by LC-MS/MS method

[6] = in vitro; conditions: human, liver microsomes; remark: listed apart in the source
[7] = physchem; conditions: acetonitrile/water mixture
Description: Solubility of the compound in acetonitrile/water mixture at 10 mM measured after 24 by HPLC-UV method

[8] = physchem; conditions: aqueous
[9] = in vitro; conditions: PAMPA, pH 7.4
Description: Apparent permeability of the compound at pH 7.4 by PAMPA

[10] = Dissociation constant, pKa of the compound; format: physicochemical
[11] = Apparent partition coefficient, log P of the compound in n-octanol/aqueous mixture at pH 3 by potentiometric titration method; format: physicochemical
[12] = physchem; conditions: aqueous/organic mixture, pH 2
[13] = physchem; conditions: n-octanol/aqueous mixture, pH 7.4
[14] = physchem; conditions: n-octanol/aqueous mixture, pH 2
[15] = Apparent partition coefficient, log P of the compound in n-octanol/aqueous mixture at pH 12 by potentiometric titration method; format: physicochemical; conditions: octanol/water
[16] = octanol/water, pH 7.4
[17] = Dissociation constant, pKb of the compound in aqueous phase at pH 2 to 12 by potentiometric titration method; format: physicochemical; conditions: buffer

Structure (SMILES) | pKb [1] | logP [4] | half-life at 1 µM [5] [h] | hepatic extraction ratio at 1 µM [6] | solubility at 10000 µM [7] [µg/mL] | solubility thermodynamic [8] [µg/mL] | Papp [9] [×10⁻⁶ cm/s] | pKa [10] | logD [11] | pKa [12] | logD [13] | logD [14] | logP [15] | logD [16] | pKb [17] | Drug degradation [2] [%] | Drug degradation [3] [%]
CS(=N)(=O)c1ccccc1 (configuration not stated) |  |  |  |  |  |  |  | 2.7 |  |  |  |  |  |  |  |  | 
CS(=O)(=O)Nc1ccc(C(F)(F)F)cc1 |  |  | > 2.17 | < 0.23 | 47 (≈ 196 µM) | 600 (≈ 2510 µM) | 5.1 |  | 2 | 8 | 1.9 |  |  |  |  |  | 
CNS(=O)(=O)c1ccc(C(F)(F)F)cc1 |  |  | > 2.17 | < 0.23 | > 49 | 900 (≈ 3760 µM) | 6.3 |  |  | 10.7 | 2.3 | 2.3 |  |  |  |  | 
O=S1(=O)CCNCC1 |  |  |  |  |  |  |  |  |  |  |  |  |  |  | 5.4 |  | 
O=S1(=N[C@H]2CC[C@@H](C(F)(F)F)CC2)CCCCC1 | 5 |  | 0.867 | 0.43 |  | < 50 | 10 |  |  |  |  |  | 3.5 | 3.5 |  |  | 
CS(C)(=O)=N[C@H]1CC[C@@H](C(F)(F)F)CC1 | 4.2 |  | > 2.17 | < 0.23 |  | 300 (≈ 1230 µM) | 7.8 |  |  |  |  |  | 2.4 | 2.4 |  |  | 
CS(=N)(=O)c1ccc(Cl)cc1 (configuration not stated) |  |  |  |  |  |  |  | 2.3 |  |  |  |  |  |  |  |  | 
N=S1(=Nc2ccc(C(F)(F)F)cc2)CCCCC1 | 4 | 1.3 | 1.83 | 0.25 | 44 (≈ 159 µM) | 500 (≈ 1810 µM) | 7.3 |  |  |  |  |  |  |  |  | 13 | < 10

Now from value to compound, other results behind:

pKb [1] | logP [4] | half-life at 1 µM [5] [h] | hepatic extraction ratio at 1 µM [6] | solubility at 10000 µM [7] [µg/mL] | solubility thermodynamic [8] [µg/mL] | Papp [9] [×10⁻⁶ cm/s] | pKa [10] | logD [11] | pKa [12] | logD [13] | logD [14] | logP [15] | logD [16] | pKb [17] | Structure (SMILES) | Drug degradation [2] [%] | Drug degradation [3] [%]
3.8 | 0.2 | > 2.17 | < 0.23 | > 59 | 4700 (≈ 17900 µM) | 9.2 |  |  |  |  |  |  |  |  | O=S1(c2ccc(C(F)(F)F)cc2)=NCCCC1 (configuration not stated) | < 10 | 34
2.5 |  | > 2.17 | < 0.23 | > 50 | 9100 (≈ 40800 µM) | 6.9 |  |  |  |  |  | 2 | 2 |  | CS(=N)(=O)c1ccc(C(F)(F)F)cc1 (configuration not stated) |  | 
 |  | > 2.17 | < 0.23 | > 48 | 800 (≈ 3550 µM) | 4.1 |  |  | 9.4 | 1.4 | 1.4 |  |  |  | NS(=O)(=O)c1ccc(C(F)(F)F)cc1 |  | 
 |  | > 2.17 | < 0.23 | 55 (≈ 195 µM) | 11100 (≈ 39300 µM) | 0.04 |  |  | 4.2 | -0.3 | 1.9 |  |  |  | CS(=O)(=O)NC(=O)Nc1ccc(C(F)(F)F)cc1 |  | 
 |  | > 2.17 | < 0.23 | > 62 | > 20000 | 0.01 |  |  | 3.2 | -1 | 1.7 |  |  |  | CS(=O)(=O)NC(=O)c1ccc(C(F)(F)F)cc1 |  | 
2.4 | -0.5 | 0.783 | 0.45 |  | 6900 (≈ 29000 µM) | 5.7 |  |  |  |  |  | 0.9 | 0.9 |  | CNS(=N)(=O)c1ccc(C(F)(F)F)cc1 (configuration not stated) | 10 | < 10
4 | -0.5 | > 2.17 | < 0.23 | > 51 | 8400 (≈ 35600 µM) | 5.6 |  |  |  |  |  | 1.8 | 1.8 |  | CS(C)(=N)=Nc1ccc(C(F)(F)F)cc1 |  | 
